US6432881B1 (dated 2002)

melting point: 82 °C
Structure (SMILES): Cn1nccc1OCc1c(S(C)(=O)=O)ccc(C(=O)C2C(=O)CC(C)(C)CC2=O)c1Cl (hydrate or solvate)
